We go through 1 molecule from PMC9858427, “Design, synthesis and biological evaluation of 2-((4-sulfamoylphenyl)amino)-pyrrolo[2,3-d]pyrimidine derivatives as CDK inhibitors” (Journal of Enzyme Inhibition and Medicinal Chemistry, 2023).

A short description of data set [1]: Body weight and H&E pathology of main organs in xenograft mice. It is filed as in vivo, BALB/C nude mice. As for the experimental part: AsPC-1 (5 × 10^7) cells were injected subcutaneously into 5-week-old female BALB/C nude mice (Beijing Huafukang Bioscience CO. Inc, Beijing, China). After two weeks, mice were omogenizamised and treated with vehicle, gemcitabine (GCTB), or test compound. Blank solvent and test compound was administered by oral gavage (10 ml/kg) with once daily of five days and followed by 2 days off in each week, GCTB was given once a week by 50 mg/kg intraperitoneal injection. Mice were inspected daily for clinical signs, both tumour diameters and body weight were determined 3 times weekly. Tumour volumes were calculated according to the formula “tumor volume (V) = length × width^2/2”. Median TGI values were calculated as follows: TGI = 100 × [1-(Vtreated group at day20-Vtreated group at day1)/(Vvehicle group at day20-Vvehicle group at day1)]. Data were plotted as average with SD in the graphical representation of tumour growth. The p values obtained from the two-way ANOVA analysis. Meanwhile, main organs of mice were collected, formalin-fixed and paraffin-embedded for pathological analysis by H&E dyeing. For drug concentration determination, blood and tumour tissues were collected at indicated time after single administration. Standard curve of test compound was established in the acquisition mode of SIM using a SHIMADZU LC-MS instrument. Blood kept in anticoagulant tube coated with heparin sodium was centrifuged to provide the supernatant, which was followed by added with 3-fold acetonitrile to precipitate plasma protein. After centrifugation at 10 × 10^3 for 5 min, the supernatant was injected directedly into LC-MS instrument for quantification of drug concentration. As for tumour tissues, omogenizationation (Precellys Evolution) was done after weighed accurately and added with 3-fold saline. After centrifugation under same condition as plasma samples, supernatant was separated and injected into LC-MS for quantification.

The nature of data set [2]: Solubility / precipitation observations. The class given is physicochemical.
The target of data set [3] is CDK9 (Homo sapiens, UniProt P50750). Description: CDK9 kinase IC50, Mobility shift assay. It is filed as biochemical. As to the method:
(§1) CDK kinase activity (IC50 values and inhibitory rate at single concentration) was measured using the kinase profiling services (Shanghai ChemPartner Co., Ltd). Compounds were sent to ChemPartner as a solution in DMSO at concentration of 10 mM.

In data set [4] the test system is phosphorylation of Rb and RNA polymerase II, Mcl-1 and c-Myc protein. Description: Immunoblots of CDK downstream proteins in MIA PaCa-2 cells. It is filed as cell-based, human. As to conditions: 6 h exposure. As for the experimental part:
Harvested cells were lysed in 20 mmol/L Tris pH 7.7, 100 mmol/L NaCl, 20 mmol/L β-glycerophosphate, 5 mmol/L MgCl2, 1 mmol/L NaF, 0.1% Triton X-100, 5% glycerol plus freshly added 1 mmol/L DTT, 0.1 µmol/L okadaic acid, 1 mmol/L sodium vanadate, and cOmplete Mini Protease Inhibitor Tablets (Roche, #11836170001). For SDS-PAGE, equal amounts of protein/lane were loaded. After gel transfer onto PDV membrane, immunoblots were performed using the following antibodies: CDK9 (Cell Signalling Technology #C12FT; 1:1,000), RNA polymerase II (Abcam #ab5131; 1:1000), MCL-1 (Abcam #Y37; […] (Cell Signalling Technology #d2b12; 1:1,000), c-Myc (Abcam #YB69; 1:1000). Secondary antibodies were from Cell Signalling Technology (#7076 or #7074). ECL detection was performed.
(In general: In western blotting, separated proteins are transferred to a membrane and probed.)

For data set [5], the target named is CDK9/cyclinT1 (Homo sapiens, UniProt P50750). Description: CDK9/cyclinT1 Lance Ultra Assay, single concentration screen. It is filed as biochemical. As to conditions: 50 nM, ATP concentration at Km, read-out: CDK9 inhibitory rate (%) @ 50nM. As to the method: as §1
For data set [6], the system named is AsPC-1. Description: MTT proliferation assay in AsPC-1 cells. It is filed as cell-based. Particulars: Homo sapiens, ASPC1; 72 h drug exposure. As for the experimental part: (§2) The human pancreatic carcinoma MIA PaCa-2 was purchased from China Centre for Type Culture Collection, AsPC-1 and BxPC-3 cell Lines were purchased from Cell Centre of the Institute of Basic Medical Sciences, Chinese Academy of Medical Sciences and Peking Union Medical College. PANC-1 was kindly provided by Nankai Hospital (Tianjin, China). These cancer cell lines were cultured according to the manufacturer’s instruction.
(§3) Cells were planted in 96-well plates at a density of 3000–4000 cells per well and incubated at 37 °C in a humidified CO2 incubator for 24 h. Then 3-fold diluted concentrations of tested compound were added respectively which was dissolved by DMSO in the ratio of 1:1000. After indicated incubation period, MTT was added to each well and incubated for 4 h at 37 °C. Then, the supernatant was discarded gently, and the precipitate was dissolved in 100 µL of DMSO in each well. The absorbance (A) at 570 nm was detected with a microplate reader (Multiskan MK3; Thermo Fisher Scientific, MA, USA). Vehicle-treated cells were served as the control for the calculation of relative cell viability (%) of treated group at single concentration. IC50 value was calculated directly from the inhibition curve of serial dilution of test compound and was expressed as mean ± SD using the SPSS statistical software (SPSS17.0 Inc., Chicago, IL, USA).

The target in data set [7] is CDK4 (Homo sapiens, UniProt P11802). Put plainly: CDK4 kinase IC50, Mobility shift assay. It is filed as biochemical. As for the experimental part:
as §1

Data set [8] concerns MIA PaCa-2 cells. Description: MTT proliferation assay in MIA PaCa-2 cells. The class given is cell-based, human. As to conditions: Homo sapiens, MIA PaCa-2, 72 h drug exposure. As for the experimental part: as §2
as §3, with “Then” for “Cells were planted in 96-well plates at a density of 3000–4000 cells per well and incubated at 37 °C in a humidified CO2 incubator for 24 h. Then”
In general terms: Tetrazolium assays rely on reduction of a dye to a coloured formazan, in cell work by metabolically active cells.

The subject of data set [9] is PANC-1. Put plainly: MTT proliferation assay in PANC-1 cells. It is filed as cell-based. As to conditions: Homo sapiens, 72 h drug exposure. As to the method:
as §2, §3

The test system of data set [10] is AsPC-1 cell-derived xenograft. Description: AsPC-1 cell-derived xenograft mice model, in vivo efficacy. Particulars: five days on two days off per week. Details: species or system BALB/C nude mice. As for the experimental part:
Synthetic compound was administered as a suspension or solution in the saline with 5% DMSO and 5% Solutol. GCTB was dissolved in saline. All of the experiments were approved by the Institutional Animal Care and Use Committee of Institute of Medicinal Biotechnology. All experiments were carried out under ethics committee–approved protocols and in compliance with the guidelines for the care of laboratory animals of Institute of Medicinal Biotechnology, CAMS.
AsPC-1 (5 × 10^7) cells were injected subcutaneously into 5-week-old female BALB/C nude mice (Beijing Huafukang Bioscience CO. Inc, Beijing, China). After two weeks, mice were omogenizamised and treated with vehicle, gemcitabine (GCTB), or test compound. Blank solvent and test compound was administered by oral gavage (10 ml/kg) with once daily of five days and followed by 2 days off in each week, GCTB was given once a week by 50 mg/kg intraperitoneal injection. Mice were inspected daily for clinical signs, both tumour diameters and body weight were determined 3 times weekly. Tumour volumes were calculated according to the formula “tumor volume (V) = length × width^2/2”. Median TGI values were calculated as follows: TGI = 100 × [1-(Vtreated group at day20-Vtreated group at day1)/(Vvehicle group at day20-Vvehicle group at day1)]. Data were plotted as average with SD in the graphical representation of tumour growth. The p values obtained from the two-way ANOVA analysis. Meanwhile, main organs of mice were collected, formalin-fixed and paraffin-embedded for pathological analysis by H&E dyeing. For drug concentration determination, blood and tumour tissues were collected at indicated time after single administration. Standard curve of test compound was established in the acquisition mode of SIM using a SHIMADZU LC-MS instrument. […] After centrifugation at 10 × 10^3 for 5 min, the supernatant was injected directedly into LC-MS instrument for quantification of drug concentration. […] After centrifugation under same condition as plasma samples, supernatant was separated and injected into LC-MS for quantification.

The subject of data set [11] is BxPC-3. Description: MTT proliferation assay in BxPC-3 cells. The class given is cell-based. Particulars: Homo sapiens, 72 h drug exposure. As to the method: as §2, §3
Data set [12] concerns the target CDK7 (Homo sapiens, UniProt P50613). Put plainly: CDK7 kinase IC50, Mobility shift assay. It is filed as biochemical. As for the experimental part:
as §1

Entries after “also recorded” stand apart in the source; their conditions may differ.

Sequence of CDK4 (P11802 whole entry): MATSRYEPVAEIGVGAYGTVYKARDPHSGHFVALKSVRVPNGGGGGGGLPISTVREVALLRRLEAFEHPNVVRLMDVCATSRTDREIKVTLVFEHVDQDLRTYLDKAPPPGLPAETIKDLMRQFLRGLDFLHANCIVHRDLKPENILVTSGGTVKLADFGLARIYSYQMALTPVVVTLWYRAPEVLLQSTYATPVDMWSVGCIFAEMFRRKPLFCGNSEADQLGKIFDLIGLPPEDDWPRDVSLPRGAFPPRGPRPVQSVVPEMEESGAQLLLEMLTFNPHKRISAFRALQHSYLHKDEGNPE
Sequence of CDK4 (P30281 whole entry partner): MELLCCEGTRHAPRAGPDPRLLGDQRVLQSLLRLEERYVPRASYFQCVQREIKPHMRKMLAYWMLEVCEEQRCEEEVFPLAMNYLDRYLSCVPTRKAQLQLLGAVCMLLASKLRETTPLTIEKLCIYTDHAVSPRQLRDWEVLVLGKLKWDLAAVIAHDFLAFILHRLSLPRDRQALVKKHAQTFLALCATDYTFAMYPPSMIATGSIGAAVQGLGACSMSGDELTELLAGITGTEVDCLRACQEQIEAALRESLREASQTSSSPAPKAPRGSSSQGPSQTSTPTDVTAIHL
Sequence of CDK9/cyclinT1 (P50750 whole entry): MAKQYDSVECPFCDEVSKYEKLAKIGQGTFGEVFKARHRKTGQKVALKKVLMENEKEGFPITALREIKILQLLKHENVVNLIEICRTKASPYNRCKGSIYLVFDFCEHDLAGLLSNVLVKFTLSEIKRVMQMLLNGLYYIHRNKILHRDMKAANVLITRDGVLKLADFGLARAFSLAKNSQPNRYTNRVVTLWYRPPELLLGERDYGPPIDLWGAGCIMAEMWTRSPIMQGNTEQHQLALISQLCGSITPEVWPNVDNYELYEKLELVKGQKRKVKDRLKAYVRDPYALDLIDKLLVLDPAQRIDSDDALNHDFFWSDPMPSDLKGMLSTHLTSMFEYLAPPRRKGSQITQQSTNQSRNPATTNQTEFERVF
Sequence of CDK9/cyclinT1 (O60563 whole entry partner): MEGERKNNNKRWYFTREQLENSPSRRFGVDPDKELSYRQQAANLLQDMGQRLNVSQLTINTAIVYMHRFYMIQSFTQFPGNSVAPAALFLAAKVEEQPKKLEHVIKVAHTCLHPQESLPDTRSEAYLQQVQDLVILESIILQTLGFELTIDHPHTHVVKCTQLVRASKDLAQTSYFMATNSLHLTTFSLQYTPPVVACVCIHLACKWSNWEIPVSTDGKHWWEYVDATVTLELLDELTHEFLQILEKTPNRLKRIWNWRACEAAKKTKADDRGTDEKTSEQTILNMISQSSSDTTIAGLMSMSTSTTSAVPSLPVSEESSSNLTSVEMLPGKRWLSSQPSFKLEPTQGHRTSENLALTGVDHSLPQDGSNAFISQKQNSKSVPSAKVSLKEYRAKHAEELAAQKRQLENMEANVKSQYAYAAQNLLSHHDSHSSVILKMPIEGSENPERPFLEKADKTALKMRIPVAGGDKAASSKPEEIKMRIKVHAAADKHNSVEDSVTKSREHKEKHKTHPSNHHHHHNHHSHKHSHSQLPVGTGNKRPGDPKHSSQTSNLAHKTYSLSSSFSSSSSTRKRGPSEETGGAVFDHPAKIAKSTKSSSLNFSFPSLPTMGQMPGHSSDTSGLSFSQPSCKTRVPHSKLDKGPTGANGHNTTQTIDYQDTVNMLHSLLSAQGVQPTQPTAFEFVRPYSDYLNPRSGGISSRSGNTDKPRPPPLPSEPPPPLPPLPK
Sequence of CDK9 (P50750 whole entry): as the sequence (P50750 whole entry) above
Sequence of CDK9 (O60563 whole entry partner): as the sequence (O60563 whole entry partner) above
Sequence of CDK7 (P50613 whole entry): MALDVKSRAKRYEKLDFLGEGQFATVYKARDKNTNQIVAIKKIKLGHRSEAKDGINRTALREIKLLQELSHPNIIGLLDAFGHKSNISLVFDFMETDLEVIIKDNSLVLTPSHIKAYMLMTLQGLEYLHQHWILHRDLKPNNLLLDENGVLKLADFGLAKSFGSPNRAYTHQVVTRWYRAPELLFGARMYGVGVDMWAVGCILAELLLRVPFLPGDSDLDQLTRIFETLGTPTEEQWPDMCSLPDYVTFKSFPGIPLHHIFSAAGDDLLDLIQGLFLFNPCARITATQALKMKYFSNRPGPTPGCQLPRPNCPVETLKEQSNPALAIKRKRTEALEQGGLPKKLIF
Sequence of CDK7 (P51946 whole entry partner): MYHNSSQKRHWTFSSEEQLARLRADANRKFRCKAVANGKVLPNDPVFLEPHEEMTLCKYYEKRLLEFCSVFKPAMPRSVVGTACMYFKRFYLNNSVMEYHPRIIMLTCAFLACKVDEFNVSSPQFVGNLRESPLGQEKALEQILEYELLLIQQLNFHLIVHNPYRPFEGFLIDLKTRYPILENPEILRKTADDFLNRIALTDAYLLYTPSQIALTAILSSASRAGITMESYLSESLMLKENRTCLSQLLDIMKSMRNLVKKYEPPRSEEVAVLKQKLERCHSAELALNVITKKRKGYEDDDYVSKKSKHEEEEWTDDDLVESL
Sequence of CDK7 (P51948 whole entry partner): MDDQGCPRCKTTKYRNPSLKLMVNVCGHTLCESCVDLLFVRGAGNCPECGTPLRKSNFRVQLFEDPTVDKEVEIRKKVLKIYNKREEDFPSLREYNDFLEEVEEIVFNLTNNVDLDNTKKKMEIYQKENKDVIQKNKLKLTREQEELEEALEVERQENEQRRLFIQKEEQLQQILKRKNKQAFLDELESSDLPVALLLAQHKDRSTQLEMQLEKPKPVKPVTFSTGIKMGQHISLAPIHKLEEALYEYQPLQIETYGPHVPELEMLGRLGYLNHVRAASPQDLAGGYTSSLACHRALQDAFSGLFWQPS

Consider `CN(C)C(=O)c1cc2cnc(Nc3ccc(S(N)(=O)=O)cc3)nc2n1C1CCCC1` [compound 2g, 7-Cyclopentyl-N,N-dimethyl-2-((4-sulfamoylphenyl)amino)-7H-pyrrolo[2,3-d]pyrimidine-6-carboxamide], for which the “pathological change in main organs (H&E)” value in [1] (after 3-week treatment) is “no obvious pathological change”. Further, the body weight change result in [1] (high dose of 2g, first ten days of administration) is listed as “obvious decrease of body weight”. The “solubility (in words)” value in data set [2] is given as “much poorer than 5b”. Besides, the IC50 in [3] turned out to be 5 nM; in data set [6] it was 1.4 ± 0.034 µM; in data set [7], 12 nM; in data set [8], 0.52 ± 0.67 µM; in data set [9] it was 11 ± 4.97 µM; in data set [11] it was 0.226 ± 0.065 µM. Also, the IC50 in data set [12] was > 10000 nM. The “Mcl-1 and c-Myc protein level” value in data set [4] is “down-regulation of Mcl-1 and c-Myc protein”. In [4], the “phosphorylation of Rb and RNA polymerase II” value is “down-regulation of phosphorylated Rb protein; also recorded: inhibited the phosphorylation of Rb and RNA polymerase II”. Moreover, the inhibition at 0.05 µM in data set [5] turned out to be 97.8%. In data set [10] (oral 30 mg/kg, 3-week administration), the “tumour growth inhibition (TGI)” value is recorded as 12%. For the same molecule, in [10] (oral 60 mg/kg, 3 weeks), the “reduction of tumour volume compared to vehicle group” value is listed as “up to 46%”.

Usually IC50 stands for the point on the concentration scale where inhibition reaches its midpoint.
